Measurements: US20150284674A1, “CAMPYLOBACTER BACTERIA AND DETECTION” (priority 2012, published 2015)
In brackets after ≈: the same amount, converted by molar mass. Entries after “also recorded” stand apart in the source; their conditions may differ.

Key:
[1] = tested on: novel campylobacter isolates; experiment: Disc diffusion susceptibility to nalidixic acid and cephalothin (30 μg discs); format: cell-based; settings: for susceptibility / resistance of the novel Campylobacter strains, in words: disc diffusion tests, 30 μg disc, novel Campylobacter strains overall; for Susceptibility to (30 μg disc): disc diffusion; for resistance (share of strains positive): taxon A: Campylobacter novel (n=23); as to Susceptibility to (30 μg disc): key: S, susceptible; R, resistant
C. avium sp. Nov = settings: taxon 1: C. avium sp. Nov; cited from earlier work
C. canadensis = settings: taxon 2: C. canadensis; cited from earlier work
C. coli = settings: taxon 3: C. coli; cited from earlier work
C. concisus = settings: taxon 4: C. concisus; cited from earlier work
C. cuniculurom = settings: taxon 5: C. cuniculurom; cited from earlier work
C. curvus = settings: taxon 6: C. curvus; cited from earlier work
C. fetus subsp. fetus = settings: taxon 7: C. fetus subsp. fetus; cited from earlier work
[2] = tested on: C. fetus subsp. venerealis; settings: taxon 8: C. fetus subsp. venerealis; cited from earlier work
C. gracilis = settings: taxon 9: C. gracilis; cited from earlier work
C. helveticus = settings: taxon 10: C. helveticus; cited from earlier work
C. hominus = settings: taxon 11: C. hominus; cited from earlier work
[3] = tested on: C. hyointestinalis subsp. hyointestinalis; settings: taxon 12: C. hyointestinalis subsp. hyointestinalis; cited from earlier work
[4] = tested on: C. hyointestinalis subsp. lawsonii; settings: taxon 13: C. hyointestinalis subsp. lawsonii; cited from earlier work
C. insulaenigrae = settings: taxon 14: C. insulaenigrae; cited from earlier work
C. jejuni subsp. Doylei = settings: taxon 15: C. jejuni subsp. Doylei; cited from earlier work
C. jejuni subsp. Jejuni = settings: taxon 16: C. jejuni subsp. Jejuni; cited from earlier work
C. lari = settings: taxon 18: C. lari; cited from earlier work
C. mucosalis = settings: taxon 19: C. mucosalis; cited from earlier work
C. rectus = settings: taxon 20: C. rectus; cited from earlier work
C. showae = settings: taxon 21: C. showae; cited from earlier work
C. sputorum = settings: taxon 22: C. sputorum; cited from earlier work
C. upsaliensis = settings: taxon 23: C. upsaliensis; cited from earlier work
[5] = tested on: Campylobacter novel strains; experiment: Antimicrobial susceptibility testing by agar dilution method (MIC); settings: Campylobacter;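 also: agar dilution MIC on HBA, used in place of the BSAC-recommended Iso-sensitest agar, across a panel of 14 antimicrobials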
Method: Antimicrobial susceptibility testing was performed using the agar dilution method for the Campylobacter novel strains against 14 antimicrobials. […] As the strains were unable to grow on the Iso-sensitest agar (ISA) recommended by the BSAC guidelines, HBA (Table 1) was used as an alternative media.

C. lanienae = settings: taxon 17: C. lanienae; cited from earlier work

CC(=O)OCC1=C(C(=O)O)N2C(=O)[C@@H](NC(=O)Cc3cccs3)[C@H]2SC1 [Cephalothin]
susceptibility / resistance of the novel Campylobacter strains, in words [1]: variable resistance; also recorded: some were sensitive
Susceptibility to (30 μg disc) ([1]; strain Farm 1 2009/1): R
Susceptibility to (30 μg disc) ([1]; strain Farm 1 2009/2): R
Susceptibility to (30 μg disc) ([1]; strain Farm 1 2011/1): R
Susceptibility to (30 μg disc) ([1]; strain Farm 1 2011/2): R
Susceptibility to (30 μg disc) ([1]; strain Farm 1 2011/3): R
Susceptibility to (30 μg disc) ([1]; strain Farm 1 2011/4): R
Susceptibility to (30 μg disc) ([1]; strain Farm 1 2011/5): R
Susceptibility to (30 μg disc) ([1]; strain Farm 1 2011/6): R
Susceptibility to (30 μg disc) ([1]; strain Farm 2 2011/1): S
Susceptibility to (30 μg disc) ([1]; strain Farm 2 2011/2): S
Susceptibility to (30 μg disc) ([1]; strain Farm 2 2011/3): S
Susceptibility to (30 μg disc) ([1]; strain Farm 2 2011/4): S
Susceptibility to (30 μg disc) ([1]; strain Farm 3 2011/1): S
Susceptibility to (30 μg disc) ([1]; strain Farm 3 2011/2): S
Susceptibility to (30 μg disc) ([1]; strain Farm 3 2011/3): S
Susceptibility to (30 μg disc) ([1]; strain Farm 4 2011/1): S
Susceptibility to (30 μg disc) ([1]; strain Farm 4 2011/2): S
Susceptibility to (30 μg disc) ([1]; strain Farm 4 2011/3): S
resistance (share of strains positive) [1]: V (V, 26-74% of strains positive)
resistance (share of strains positive) (C. avium sp. Nov): + (+, 90-100% of strains positive)
resistance (share of strains positive) (C. canadensis): − (−, 0-10% of strains positive)
resistance (share of strains positive) (C. coli): + (+, 90-100% of strains positive)
resistance (share of strains positive) (C. concisus): − (−, 0-10% of strains positive)
resistance (share of strains positive) (C. cuniculurom): (+) ((+), 75-89% strains positive)
resistance (share of strains positive) (C. curvus): − (−, 0-10% of strains positive)
resistance (share of strains positive) (C. fetus subsp. fetus): − (−, 0-10% of strains positive)
resistance (share of strains positive) [2]: − (−, 0-10% of strains positive)
resistance (share of strains positive) (C. gracilis): − (−, 0-10% of strains positive)
resistance (share of strains positive) (C. helveticus): − (−, 0-10% of strains positive)
resistance (share of strains positive) (C. hominus): − (−, 0-10% of strains positive)
resistance (share of strains positive) [3]: (−) ((−), 11-25% of strains positive)
resistance (share of strains positive) [4]: − (−, 0-10% of strains positive)
resistance (share of strains positive) (C. insulaenigrae): + (+, 90-100% of strains positive)
resistance (share of strains positive) (C. jejuni subsp. Doylei): − (−, 0-10% of strains positive)
resistance (share of strains positive) (C. jejuni subsp. Jejuni): + (+, 90-100% of strains positive)
resistance (share of strains positive) (C. lari): + (+, 90-100% of strains positive)
resistance (share of strains positive) (C. mucosalis): − (−, 0-10% of strains positive)
resistance (share of strains positive) (C. rectus): − (−, 0-10% of strains positive)
resistance (share of strains positive) (C. showae): − (−, 0-10% of strains positive)
resistance (share of strains positive) (C. sputorum): − (−, 0-10% of strains positive)
resistance (share of strains positive) (C. upsaliensis): (−) ((−), 11-25% of strains positive)
MIC50 [5]: 32 µg/mL (≈ 80.7 µM)
MIC90 [5]: 32 µg/mL (≈ 80.7 µM)

CCn1cc(C(=O)O)c(=O)c2ccc(C)nc21 [Nalidixic acid]
susceptibility / resistance of the novel Campylobacter strains, in words [1]: susceptible
Susceptibility to (30 μg disc) ([1]; strain Farm 1 2009/1): S
Susceptibility to (30 μg disc) ([1]; strain Farm 1 2009/2): S
Susceptibility to (30 μg disc) ([1]; strain Farm 1 2011/1): S
Susceptibility to (30 μg disc) ([1]; strain Farm 1 2011/2): S
Susceptibility to (30 μg disc) ([1]; strain Farm 1 2011/3): S
Susceptibility to (30 μg disc) ([1]; strain Farm 1 2011/4): S
Susceptibility to (30 μg disc) ([1]; strain Farm 1 2011/5): S
Susceptibility to (30 μg disc) ([1]; strain Farm 1 2011/6): S
Susceptibility to (30 μg disc) ([1]; strain Farm 2 2011/1): S
Susceptibility to (30 μg disc) ([1]; strain Farm 2 2011/2): S
Susceptibility to (30 μg disc) ([1]; strain Farm 2 2011/3): S
Susceptibility to (30 μg disc) ([1]; strain Farm 2 2011/4): S
Susceptibility to (30 μg disc) ([1]; strain Farm 3 2011/1): S
Susceptibility to (30 μg disc) ([1]; strain Farm 3 2011/2): S
Susceptibility to (30 μg disc) ([1]; strain Farm 3 2011/3): S
Susceptibility to (30 μg disc) ([1]; strain Farm 4 2011/1): S
Susceptibility to (30 μg disc) ([1]; strain Farm 4 2011/2): S
Susceptibility to (30 μg disc) ([1]; strain Farm 4 2011/3): S
resistance (share of strains positive) [1]: − (−, 0-10% of strains positive)
resistance (share of strains positive) (C. avium sp. Nov): − (−, 0-10% of strains positive)
resistance (share of strains positive) (C. canadensis): V (V, 26-74% of strains positive)
resistance (share of strains positive) (C. coli): − (−, 0-10% of strains positive)
resistance (share of strains positive) (C. concisus): (+) ((+), 75-89% strains positive)
resistance (share of strains positive) (C. cuniculurom): V (V, 26-74% of strains positive)
resistance (share of strains positive) (C. curvus): + (+, 90-100% of strains positive)
resistance (share of strains positive) (C. fetus subsp. fetus): + (+, 90-100% of strains positive)
resistance (share of strains positive) [2]: V (V, 26-74% of strains positive)
resistance (share of strains positive) (C. gracilis): V (V, 26-74% of strains positive)
resistance (share of strains positive) (C. helveticus): − (−, 0-10% of strains positive)
resistance (share of strains positive) (C. hominus): V (V, 26-74% of strains positive)
resistance (share of strains positive) [3]: + (+, 90-100% of strains positive)
resistance (share of strains positive) [4]: + (+, 90-100% of strains positive)
resistance (share of strains positive) (C. insulaenigrae): + (+, 90-100% of strains positive)
resistance (share of strains positive) (C. jejuni subsp. Doylei): − (−, 0-10% of strains positive)
resistance (share of strains positive) (C. jejuni subsp. Jejuni): − (−, 0-10% of strains positive)
resistance (share of strains positive) (C. lanienae): + (+, 90-100% of strains positive)
resistance (share of strains positive) (C. lari): V (V, 26-74% of strains positive)
resistance (share of strains positive) (C. mucosalis): (+) ((+), 75-89% strains positive)
resistance (share of strains positive) (C. rectus): (+) ((+), 75-89% strains positive)
resistance (share of strains positive) (C. showae): − (−, 0-10% of strains positive)
resistance (share of strains positive) (C. sputorum): (+) ((+), 75-89% strains positive)
resistance (share of strains positive) (C. upsaliensis): − (−, 0-10% of strains positive)
MIC50 [5]: 4 µg/mL (≈ 17.2 µM)
MIC90 [5]: 8 µg/mL (≈ 34.4 µM)
